US20240101563A1, “NOVEL COMPOUNDS” (AC Immune SA, priority 2022, published 2024)

Assays:
[1] = tested on: IL-1β; assay: Inhibition of IL-1β in an LPS/ATP induced acute peritonitis mouse model; assay type: in vivo; conditions: BALB/c mice; dosed 30 min before LPS i.p.; ATP i.p. 120 min after LPS; PW 30 min post ATP; vs LPS-ATP, 0 mg/kg
Experimental: 1.2.1 The efficacy of Example compounds 53 and 18 in an LPS/ATP-induced acute peritonitis was evaluated: LPS (Lipopolysaccharide) and ATP (Adenosine triphosphate) were administered to BALB/c mice by intraperitoneal (i.p.) injection to elicit an acute inflammatory response in the peritoneal cavity.
Mice (BALB/c mice, aged 6-8 w, females) were challenged with 50 μg/kg LPS by intraperitoneal (i.p.) injection. 120 min after LPS administration, ATP was delivered by i.p. injection at 50 mM in 200 μL. […]
Cytometric Bead Array (CBA) Assay for IL-1β detection was performed on the peritoneal wash supernatant as follows: supernatants or cytokine standards were incubated with the capture beads mixture for 1 hour at room temperature. […] After washing in Wash Buffer containing 1×PBS, blocking protein, and detergent, the beads were re-suspended and analyzed by flow cytometry.
The cytokine analysis raw data were analyzed using FACP. […] Data were expressed as the Mean±SD. […]

[2] = tested on: NLRP3 inflammasome pathway; assay: NLRP3 inflammasome pathway activation assay, MSU stimulation, IL-1β HTRF; assay type: cell-based; conditions: Homo sapiens, 3 h, Table 7; PMA-differentiated, LPS-primed cells; MSU 200 μg/mL for 3 h; IL-1β release; read-out: IC50 Human monocyte-like cells MSU
Summary of the method: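 Human monocyte-like cells differentiated overnight with 10 ng/mL PMA, primed 3 h with 10 ng/mL LPS, given compound ([…]) 30 min before 3 h stimulation with Nigericin 3.75 μM or MSU 200 μg/mL. Supernatant IL-1β quantified by HTRF; IC50 at 50% inhibition.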

| Structure (SMILES) | IL-1β release in peritoneal wash (PW) [1] | IC50 [2] [nM] |
| --- | --- | --- |
| Cc1cc(C(F)(F)F)cc(O)c1-c1nc2nc(OC3CCN(C)C3)cnc2n1C (single isomer, unassigned) [Example 53, 3-methyl-2-(1-methyl-5-((1-methylpyrrolidin-3-yl)oxy)-1H-imidazo[4,5-b]pyrazin-2-yl)-5-(trifluoromethyl)phenol] | significantly reduced IL-1β release in PW in a dose response manner | < 100 |
| Cc1cc(C(F)(F)F)cc(O)c1-c1nc2nc(NC3CCN(C)C3)ccc2n1C (racemic) [Example 18, 3-methyl-2-(1-methyl-5-((1-methylpyrrolidin-3-yl)amino)-1H-imidazo[4,5-b]pyridin-2-yl)-5-(trifluoromethyl)phenol] | significantly reduced IL-1p release in PW in a dose response manner | – |
